How the values were obtained:
Assay type in all cases: in vivo
[1] = test system: Erysiphe graminis; assay: Powdery Mildew of Wheat (ERYSGT), protectant spray test on wheat seedlings; details: wheat (cultivar Monon), sprayed to run off at 100 ppm, inoculated after 24 hours
[2] = test system: Phytophthora infestans; details: tomatoes (cultivar Rutgers), sprayed to run off at 100 ppm, inoculated after 24 hours
[3] = test system: Leptosphaeria nodorum; assay: Glume Blotch of Wheat (LEPTNO), protectant spray test on wheat seedlings; details: wheat (cultivar Monon), sprayed to run off at 100 ppm, inoculated after 24 hours
[4] = test system: Puccinia recondita; assay: Brown Rust (PUCCRT), protectant spray test on wheat seedlings; details: wheat (cultivar Monon), sprayed to run off at 100 ppm, inoculated after 24 hours

SMILES | ERYSGT control of plant disease [1] | PHYTIN control of plant disease [2] | LEPTNO control of plant disease [3] | PUCCRT control of plant disease [4]
CNC(=O)C(=NOC)c1ccccc1COc1ncc(C(O)c2ccccc2C)cc1Cl (racemic) [Example 59] | ++ (++ = 75-100% control of plant disease) | ++ (++ = 75-100% control of plant disease) | ++ (++ = 75-100% control of plant disease) | ++ (++ = 75-100% control of plant disease)
CNC(=O)C(=NOC)c1ccccc1COc1ncc(C(OC(C)=O)c2ccc3c(c2)OCO3)cc1Cl (racemic) [Example 60] | ++ (++ = 75-100% control of plant disease) | ++ (++ = 75-100% control of plant disease) | ++ (++ = 75-100% control of plant disease) | ++ (++ = 75-100% control of plant disease)
CNC(=O)C(=NOC)c1ccccc1COc1ncc(C(OC(C)=O)c2ccccc2C)cc1Cl (racemic) [Example 61] | ++ (++ = 75-100% control of plant disease) | ++ (++ = 75-100% control of plant disease) | ++ (++ = 75-100% control of plant disease) | ++ (++ = 75-100% control of plant disease)
CNC(=O)C(=NOC)c1ccccc1COc1ncc(C(C)OCc2cccc(OC)c2)cc1Cl (racemic) [Example 62] | ++ (++ = 75-100% control of plant disease) | − (− = 0-24% control of plant disease) | ++ (++ = 75-100% control of plant disease) | ++ (++ = 75-100% control of plant disease)
CCOCC(=O)OC(c1ccccc1)c1cnc(OCc2ccccc2C(=NOC)C(=O)NC)c(Cl)c1 (racemic) [Example 63] | ++ (++ = 75-100% control of plant disease) | ++ (++ = 75-100% control of plant disease) | ++ (++ = 75-100% control of plant disease) | ++ (++ = 75-100% control of plant disease)
CNC(=O)C(=NOC)c1ccccc1COc1ncc(C(OC(=O)COC)c2ccccc2)cc1Cl (racemic) [Example 64] | ++ (++ = 75-100% control of plant disease) | ++ (++ = 75-100% control of plant disease) | + (+ = 25-74% control of plant disease) | ++ (++ = 75-100% control of plant disease)
CNC(=O)C(=NOC)c1ccccc1COc1ncc(C(O)c2ccccc2F)cc1Cl (racemic) [Example 65] | ++ (++ = 75-100% control of plant disease) | ++ (++ = 75-100% control of plant disease) | ++ (++ = 75-100% control of plant disease) | ++ (++ = 75-100% control of plant disease)
CNC(=O)C(=NOC)c1ccccc1COc1ncc(COCc2ccc(OC)cc2)cc1Cl [Example 25] | ++ (++ = 75-100% control of plant disease) | + (+ = 25-74% control of plant disease) | ++ (++ = 75-100% control of plant disease) | ++ (++ = 75-100% control of plant disease)
CNC(=O)C(=NOC)c1ccccc1COc1ncc(C(C)(C)O)cc1Cl [Example 34] | − (− = 0-24% control of plant disease) | + (+ = 25-74% control of plant disease) | + (+ = 25-74% control of plant disease) | ++ (++ = 75-100% control of plant disease)
CC[Si](CC)(CC)OC(c1ccccc1)c1cnc(OCc2ccccc2C(=NOC)C(=O)NC)c(Cl)c1 (stereo not shown) [Example 67] | ++ (++ = 75-100% control of plant disease) | = = | ++ (++ = 75-100% control of plant disease) | ++ (++ = 75-100% control of plant disease)
CNC(=O)C(=NOC)c1ccccc1COc1ncc(C(OC(=O)OC)c2ccccc2)cc1Cl (stereo not shown) [Example 68] | ++ (++ = 75-100% control of plant disease) | ++ (++ = 75-100% control of plant disease) | − (− = 0-24% control of plant disease) | ++ (++ = 75-100% control of plant disease)
CCOC(c1ccccc1)c1cnc(OCc2ccccc2C(=NOC)C(=O)NC)c(Cl)c1 (stereo not shown) [Example 69] | ++ (++ = 75-100% control of plant disease) | − (− = 0-24% control of plant disease) | ++ (++ = 75-100% control of plant disease) | ++ (++ = 75-100% control of plant disease)
CNC(=O)C(=NOC)c1ccccc1COc1ncc(C(O)c2ccc(C)cc2)cc1Cl (stereo not shown) [Example 70] | ++ (++ = 75-100% control of plant disease) | ++ (++ = 75-100% control of plant disease) | ++ (++ = 75-100% control of plant disease) | ++ (++ = 75-100% control of plant disease)
CNC(=O)C(=NOC)c1ccccc1COc1ncc(C(OC(C)=O)c2ccc(C)cc2)cc1Cl (stereo not shown) [Example 71] | ++ (++ = 75-100% control of plant disease) | ++ (++ = 75-100% control of plant disease) | ++ (++ = 75-100% control of plant disease) | ++ (++ = 75-100% control of plant disease)
CNC(=O)C(=NOC)c1ccccc1COc1ncc(C(O)c2ccccc2)cc1Cl (stereo not shown) [Example 72] | ++ (++ = 75-100% control of plant disease) | ++ (++ = 75-100% control of plant disease) | ++ (++ = 75-100% control of plant disease) | ++ (++ = 75-100% control of plant disease)
CNC(=O)C(=NOC)c1ccccc1COc1ncc(C(O)c2cccc(Cl)c2)cc1Cl (stereo not shown) [Example 73] | ++ (++ = 75-100% control of plant disease) | ++ (++ = 75-100% control of plant disease) | ++ (++ = 75-100% control of plant disease) | ++ (++ = 75-100% control of plant disease)

Reference: patent publication US6436963B1 (priority 1998, dated 2002)
